Reference: patent publication US12653892B2, “Composition and method for new therapeutic agents including guanidinium-presenting dendrimers and branched structures” (priority 2020, dated 2026)
≈ marks a conversion by molar mass, not a printed value. Read-outs that look alike come from different tables or passages of the source.

What was measured:
S. aureus ATCC 29213 [1] = assay: MIC by broth microdilution, S. aureus ATCC 29213; format: cell-based; details: S. aureus (ATCC 29213); for MIC, Antibiotic +NH2-triguan-6C / MIC, Antibiotic +NO2-triamine-2C / MIC, Antibiotic +NO2-triamine-6C: non-covalent mixture; for MIC: Staphylococcus aureus, ATCC29213, 20 h, read-out: MIC, Antibiotic Alone
Protocol: (§1) Methods—Determination of MICs: MICs for S. aureus, E. faecium, E. coli, P aeruginosa, A. baumannii, K. pneumoniae were determined using broth microdilution in accordance with CLSI methods (Wiegand, I.; Hilpert, K.; Hancock, R. E. W. Agar and Broth Dilution Methods to Determine the Minimal Inhibitory Concentration (MIC) of Antimicrobial Substances. Nat. Protoc. 2008, 3, 163-175). One day prior to each MIC experiment, bacterial strains were streaked for single colonies on TSA plates from frozen glycerol stocks stored at −80° C. Three to five colonies from each plate were harvested with a disposable inoculating loop and resuspended in 500 μL of PBS to create a bacterial suspension. Alternatively, a single colony of the appropriate bacterial strain was added to 4 mL TSB for overnight growth at 37° C. with 200 rpm shaking to create a stationary phase bacterial suspension. The suspension was diluted in PBS to an OD600 of 0.1 (˜[…] CFU/ml), and the OD 0.1 suspension was diluted 1:100 in Mueller Hinton broth (MHB, Difco 257530) just prior to inoculating the 96-well polypropylene treatment plate (Costar 3879). A 50 μL portion of inoculum was added to a treatment plate containing 2-fold serial dilutions of compound in MHB (50 μL of treatment/well) to lend a final total volume of 100 μL/well and a final inoculum density of ˜5×10^5 CFU/ml. The completed assay plate was sealed with Parafilm, placed in a lidded plastic tray lined with moistened paper towels, and incubated at 37° C. for approximately 20 hours. The MIC was read as the lowest treatment concentration where no bacterial growth occurred, as determined by OD600 measurements on a microplate reader. If a different plate or media type was used for a particular test, this is noted below the respective table.

E. coli ATCC 25922 [2] = assay: MIC by broth microdilution, E. coli ATCC 25922; format: cell-based; details: E. coli (ATCC 25922); for MIC, Antibiotic +NH2-triguan-6C / MIC, Antibiotic +NO2-triamine-2C / MIC, Antibiotic +NO2-triamine-6C: non-covalent mixture
Protocol: as §1

S. aureus ATCC 29213 [3] = details: cited from earlier work
E. coli ATCC 25922 [4] = details: cited from earlier work
[5] = Mueller Hinton Broth, polypropylene plate
[6] = cation-adjusted MHB2 supplemented
[7] = cation-adjusted MHB2 supplemented with 50 g/L Ca2+

SMILES | MIC, Antibiotic +NH2-triguan-6C (S. aureus ATCC 29213 [1]; [5]) | MIC, Antibiotic +NO2-triamine-2C (S. aureus ATCC 29213 [1]; [5]) | MIC, Antibiotic +NO2-triamine-6C (S. aureus ATCC 29213 [1]; [5]) | MIC (S. aureus ATCC 29213 [1]; [5]) | MIC, Antibiotic Alone (E. coli ATCC 25922 [2]) | MIC, Antibiotic +NH2-triguan-6C (E. coli ATCC 25922 [2]) | MIC, Antibiotic +NO2-triamine-2C (E. coli ATCC 25922 [2]) | MIC, Antibiotic +NO2-triamine-6C (E. coli ATCC 25922 [2]) | MIC, Antibiotic +NH2-triguan-6C (S. aureus ATCC 29213 [1]; [6]) | MIC, Antibiotic +NO2-triamine-2C (S. aureus ATCC 29213 [1]; [7]) | MIC, Antibiotic +NO2-triamine-6C (S. aureus ATCC 29213 [1]; [7]) | MIC (S. aureus ATCC 29213 [1]; [6]) | Literature MIC (S. aureus ATCC 29213 [3]) | Literature MIC (E. coli ATCC 25922 [4])
O=C(N[C@H](CO)[C@H](O)c1ccc([N+](=O)[O-])cc1)C(Cl)Cl [Chloramphenicol] | 32 µM (≈ 10.3 µg/mL) | 32 µM (≈ 10.3 µg/mL) | 32 µM (≈ 10.3 µg/mL) | 32 µM (≈ 10.3 µg/mL) | 16 µM (≈ 5.17 µg/mL) | 16 µM (≈ 5.17 µg/mL) | 16 µM (≈ 5.17 µg/mL) | 16 µM (≈ 5.17 µg/mL) |  |  |  |  | 6 to 50 µM | 6 to 25 µM
O=C(O)c1cn(C2CC2)c2cc(N3CCNCC3)c(F)cc2c1=O [Ciprofloxacin] |  |  |  |  |  |  |  |  |  |  |  |  | 0.4 to 1.5 µM | 
C[C@@H](O)[C@H]1C(=O)N2C(C(=O)O)=C(S[C@@H]3CN[C@H](C(=O)N(C)C)C3)[C@H](C)[C@H]12 [Meropenem] | 0.125 µM (≈ 0.0479 µg/mL) | 0.125 µM (≈ 0.0479 µg/mL) | 0.125 µM (≈ 0.0479 µg/mL) | 0.125 µM (≈ 0.0479 µg/mL) |  |  |  |  |  |  |  |  | 0.08 to 0.65 µM | 

More lines, main results first:

MIC, Antibiotic +NH2-triguan-6C (S. aureus ATCC 29213 [1]; [5]) | MIC, Antibiotic +NO2-triamine-2C (S. aureus ATCC 29213 [1]; [5]) | MIC, Antibiotic +NO2-triamine-6C (S. aureus ATCC 29213 [1]; [5]) | MIC (S. aureus ATCC 29213 [1]; [5]) | MIC, Antibiotic Alone (E. coli ATCC 25922 [2]) | MIC, Antibiotic +NH2-triguan-6C (E. coli ATCC 25922 [2]) | MIC, Antibiotic +NO2-triamine-2C (E. coli ATCC 25922 [2]) | MIC, Antibiotic +NO2-triamine-6C (E. coli ATCC 25922 [2]) | MIC, Antibiotic +NH2-triguan-6C (S. aureus ATCC 29213 [1]; [6]) | MIC, Antibiotic +NO2-triamine-2C (S. aureus ATCC 29213 [1]; [7]) | MIC, Antibiotic +NO2-triamine-6C (S. aureus ATCC 29213 [1]; [7]) | MIC (S. aureus ATCC 29213 [1]; [6]) | SMILES | Literature MIC (S. aureus ATCC 29213 [3]) | Literature MIC (E. coli ATCC 25922 [4])
4 µM (≈ 1.4 µg/mL) | 4 µM (≈ 1.4 µg/mL) | 4 µM (≈ 1.4 µg/mL) | 2 µM (≈ 0.699 µg/mL) | 16 µM (≈ 5.59 µg/mL) | 16 µM (≈ 5.59 µg/mL) | 16 µM (≈ 5.59 µg/mL) | 16 µM (≈ 5.59 µg/mL) |  |  |  |  | CC1(C)S[C@@H]2[C@H](NC(=O)[C@H](N)c3ccccc3)C(=O)N2[C@H]1C(=O)O [Ampicillin] | 1.4 µM | 5 to 22 µM
2 µM (≈ 1.5 µg/mL) | 2 µM (≈ 1.5 µg/mL) | 2 µM (≈ 1.5 µg/mL) | 2 µM (≈ 1.5 µg/mL) |  |  |  |  |  |  |  |  | CC[C@H]1OC(=O)[C@H](C)[C@@H](O[C@H]2C[C@@](C)(OC)[C@@H](O)[C@H](C)O2)[C@H](C)[C@@H](O[C@@H]2O[C@H](C)C[C@H](N(C)C)[C@H]2O)[C@](C)(O)C[C@@H](C)CN(C)[C@H](C)[C@@H](O)[C@]1(C)O [Azithromycin] | 0.64 to 2.5 µM | 
 |  |  |  |  |  |  |  | 0.5 µM (≈ 0.81 µg/mL) | 0.5 µM (≈ 0.81 µg/mL) | 0.5 µM (≈ 0.81 µg/mL) | 0.5 µM (≈ 0.81 µg/mL) | CCCCCCCCCC(=O)N[C@@H](Cc1c[nH]c2ccccc12)C(=O)N[C@H](CC(N)=O)C(=O)N[C@@H](CC(=O)O)C(=O)N[C@@H]1C(=O)NCC(=O)N[C@@H](CCCN)C(=O)N[C@@H](CC(=O)O)C(=O)N[C@H](C)C(=O)N[C@@H](CC(=O)O)C(=O)NCC(=O)N[C@H](CO)C(=O)N[C@@H]([C@H](C)CC(=O)O)C(=O)N[C@@H](CC(=O)c2ccccc2N)C(=O)O[C@@H]1C [Daptomycin] | 0.077 to 0.62 µM | 
